Measured values from PubChem BioAssay AID1259407 (Chemical Carcinogenesis Research Information System (CCRIS), 2018).
Active and inactive are the calls of the source. No rule for the calls is given here.

Test system: CCRIS mutagenicity, Ames/micronucleus/aberration tests
Assay: CCRIS mutagenicity studies

In the case of `COS(C)(=O)=O`, the mutagenic call (End Point: IN VITRO MICRONUCLEUS, Test System: CHINESE HAMSTER OVARY CELLS, Metabolic Activation: NONE) is reported as “active; positive”, the mutagenic call (End Point: IN VITRO MICRONUCLEUS, Test System: CHL/IU CELLS, Metabolic Activation: NONE) is reported as “active; positive” and the mutagenic call (End Point: IN VITRO MICRONUCLEUS, Test System: CHO CELLS, Metabolic Activation: RAT, LIVER, S-9, AROCLOR 1254) is reported as “active; positive”. For the same compound, the mutagenic call (End Point: IN VITRO MICRONUCLEUS, Test System: HUMAN FIBROBLASTS VH25 CELLS, Metabolic Activation: NONE) was “active; positive”, the mutagenic call (End Point: IN VITRO MICRONUCLEUS, Test System: MOUSE LYMPHOMA L5178Y CELLS, Metabolic Activation: NONE) was “active; positive” and the mutagenic call (End Point: IN VIVO MICRONUCLEUS, Test System: BONE MARROW POLYCHROMATIC ERYTHROCYTES, Species: MOUSE, Strain/Sex: SWISS/FEMALE, Route: IP) was “active; positive”. The mutagenic call (End Point: IN VIVO MICRONUCLEUS, Test System: HEPATOCYTES, Species: RAT, Strain/Sex: FISHER 344 OR SD/MALE, Route: ORAL OR IP) was “inactive; negative”, the mutagenic call (End Point: IN VIVO MICRONUCLEUS, Test System: PERIPHERAL BLOOD RETICULOCYTES, Species: RAT, Strain/Sex: FISHER 344 OR SD/MALE, Route: ORAL OR IP) was “active; positive” and the mutagenic call (End Point: In vitro micronucleus, Test System: Chinese hamster ovary (CHO) cells, Metabolic Activation: None) was “active; positive (lycopene (10, 25 and 50 um) significantly reduced the number of micron”. For the same compound, the mutagenic call (End Point: In vitro micronucleus, Test System: Chinese hamster ovary (CHO-WBL) cells, Metabolic Activation: None) was “active; positive (p<0.01)”, the mutagenic call (Test System: AMES SALMONELLA TYPHIMURIUM, Strain/Indicator: TA97, Metabolic Activation: NONE, Method: STANDARD PLATE) was “active; positive” and the mutagenic call (Test System: AMES SALMONELLA TYPHIMURIUM, Strain/Indicator: TA97, Metabolic Activation: RAT, LIVER, S-9, AROCLOR 1254, Method: STANDARD PLATE) was “inactive; negative”. For the same compound, the mutagenic call (Test System: AMES SALMONELLA TYPHIMURIUM, Strain/Indicator: TA98, Metabolic Activation: NONE, Method: STANDARD PLATE) was “inactive; negative”, the mutagenic call (Test System: AMES SALMONELLA TYPHIMURIUM, Strain/Indicator: TA98, Metabolic Activation: RAT, LIVER, S-9, AROCLOR 1254, Method: STANDARD PLATE) was “inactive; negative” and the mutagenic call (Test System: AMES SALMONELLA TYPHIMURIUM, Strain/Indicator: TA100, Metabolic Activation: NONE, Method: STANDARD PLATE) was “active; positive”. The mutagenic call (Test System: AMES SALMONELLA TYPHIMURIUM, Strain/Indicator: TA100, Metabolic Activation: RAT, LIVER, S-9, AROCLOR 1254, Method: STANDARD PLATE) was “inactive; negative”, the mutagenic call (Test System: AMES SALMONELLA TYPHIMURIUM, Strain/Indicator: TA1535, Metabolic Activation: NONE, Method: STANDARD PLATE) was “active; positive” and the mutagenic call (Test System: AMES SALMONELLA TYPHIMURIUM, Strain/Indicator: YG7100, Metabolic Activation: NONE, Method: PREINCUBATION) was “inactive; negative”. For the same compound, the mutagenic call (Test System: AMES SALMONELLA TYPHIMURIUM, Strain/Indicator: YG7104, Metabolic Activation: NONE, Method: PREINCUBATION) was “active; positive”, the mutagenic call (Test System: AMES SALMONELLA TYPHIMURIUM, Strain/Indicator: YG7108, Metabolic Activation: NONE, Method: PREINCUBATION) was “active; positive” and the mutagenic call (Test System: AMES SALMONELLA TYPHIMURIUM, Strain/Indicator: YG7112, Metabolic Activation: NONE, Method: PREINCUBATION) was “active; positive”. The mutagenic call (Test System: AMES SALMONELLA TYPHIMURIUM, Strain/Indicator: YG7113, Metabolic Activation: NONE, Method: PREINCUBATION) was “active; positive”, the mutagenic call (Test System: AMES SALMONELLA TYPHIMURIUM, Strain/Indicator: YG7119, Metabolic Activation: NONE, Method: PREINCUBATION) was “active; positive” and the mutagenic call (Test System: CHINESE HAMSTER OVARY, Strain/Indicator: CHO-K1-BH4 (HGPRT)/6-THIOGUANINE, Metabolic Activation: NONE, Method: SUSPENSION/PLATE) was “active; positive”. The mutagenic call (Test System: CHINESE HAMSTER OVARY, Strain/Indicator: CHO-K1-BH4 (HGPRT), Metabolic Activation: NONE, Method: MONOLAYER) was “active; positive”, the mutagenic call (Test System: CHINESE HAMSTER OVARY, Strain/Indicator: CHO-K1-BH4 (HGPRT), Metabolic Activation: NONE, Method: SUSPENSION/PLATE) was “active; positive” and the mutagenic call (Test System: CHINESE HAMSTER V-79, Strain/Indicator: V-79/6-THIOGUANINE, Metabolic Activation: NONE, Method: FLASK ASSAY) was “active; positive”. For the same compound, the mutagenic call (Test System: CHINESE HAMSTER V-79, Strain/Indicator: V-79/6-THIOGUANINE, Metabolic Activation: NONE, Method: STANDARD PLATE) was “active; positive”, the mutagenic call (Test System: CHINESE HAMSTER V-79, Strain/Indicator: V-79/6-THIOGUANINE, Metabolic Activation: NONE, Method: SUSPENSION/PLATE) was “active; positive” and the mutagenic call (Test System: CHINESE HAMSTER V-79, Strain/Indicator: V-79/8-AZAGUANINE, Metabolic Activation: NONE, Method: STANDARD PLATE) was “active; positive”. The mutagenic call (Test System: CHINESE HAMSTER V-79, Strain/Indicator: V-79/OUABAIN, Metabolic Activation: NONE, Method: STANDARD PLATE) was “active; positive” and the mutagenic call (Test System: CHINESE HAMSTER V-79, Strain/Indicator: V-79/OUABAIN, Metabolic Activation: NONE, Method: SUSPENSION/PLATE) was “inactive; negative”.
